Measurements published in the NIST ThermoML archive (doi:10.1016/j.jct.2018.08.035).

Test: xn = mol fraction of the nth substance listed
Conditions: 100 kPa, Liquid, Vibrating tube method

CCC(O)CC [3-pentanol] + C[N+](=O)[O-]
Conditions | mass density [kg/m3]
290.86 K, x1 = 0.414 | 977.244
290.86 K, x1 = 0.615 | 890.972
290.95 K, x1 = 0.246 | 1006.81
290.95 K, x1 = 0.266 | 998.292
290.95 K, x1 = 0.275 | 994.793
290.95 K, x1 = 0.3 | 988.13
290.95 K, x1 = 0.325 | 987.695
290.95 K, x1 = 0.338 | 986.437
290.95 K, x1 = 0.363 | 982.374
290.95 K, x1 = 0.382 | 980.189
290.95 K, x1 = 0.407 | 976.76
290.95 K, x1 = 0.414 | 976.042
290.95 K, x1 = 0.486 | 956.644
290.95 K, x1 = 0.488 | 952.742
290.95 K, x1 = 0.546 | 927.124
290.95 K, x1 = 0.573 | 908.776
290.95 K, x1 = 0.587 | 897.749
290.95 K, x1 = 0.615 | 890.865
291.05 K, x1 = 0.246 | 1006.69
291.05 K, x1 = 0.275 | 994.663
291.05 K, x1 = 0.382 | 978.765
291.05 K, x1 = 0.407 | 975.346
291.05 K, x1 = 0.414 | 974.647
291.05 K, x1 = 0.486 | 954.019
291.05 K, x1 = 0.488 | 945.483
291.05 K, x1 = 0.573 | 903.111
291.06 K, x1 = 0.266 | 998.167
291.06 K, x1 = 0.3 | 986.306
291.06 K, x1 = 0.325 | 985.699
291.06 K, x1 = 0.338 | 984.897
291.06 K, x1 = 0.363 | 981.518
291.06 K, x1 = 0.546 | 924.902
291.06 K, x1 = 0.587 | 897.593
291.06 K, x1 = 0.615 | 890.758
291.15 K, x1 = 0.246 | 1006.56
291.15 K, x1 = 0.266 | 998.042
291.15 K, x1 = 0.275 | 994.538
291.15 K, x1 = 0.3 | 985.201
291.15 K, x1 = 0.325 | 983.513
291.15 K, x1 = 0.338 | 982.822
291.15 K, x1 = 0.382 | 977.024
291.15 K, x1 = 0.407 | 973.664
291.15 K, x1 = 0.414 | 973.001
291.15 K, x1 = 0.486 | 951.113
291.15 K, x1 = 0.488 | 947.64
291.15 K, x1 = 0.573 | 901.117
291.15 K, x1 = 0.615 | 890.652
291.15 K, x1 = 0.629 | 887.189
291.16 K, x1 = 0.363 | 980.295
291.16 K, x1 = 0.546 | 921.069
291.16 K, x1 = 0.587 | 897.497
291.25 K, x1 = 0.246 | 1006.44
291.25 K, x1 = 0.266 | 997.918
291.25 K, x1 = 0.275 | 994.413
291.25 K, x1 = 0.3 | 985.014
291.25 K, x1 = 0.325 | 980.203
291.25 K, x1 = 0.338 | 980.22
291.25 K, x1 = 0.382 | 974.837
291.25 K, x1 = 0.407 | 971.578
291.25 K, x1 = 0.414 | 970.955
291.25 K, x1 = 0.486 | 947.303
291.25 K, x1 = 0.488 | 944.104
291.25 K, x1 = 0.573 | 901.031
291.25 K, x1 = 0.587 | 897.388
291.25 K, x1 = 0.615 | 890.547
291.26 K, x1 = 0.363 | 978.023
291.26 K, x1 = 0.546 | 917.045
291.35 K, x1 = 0.246 | 1006.32
291.35 K, x1 = 0.275 | 994.289
291.35 K, x1 = 0.382 | 972.169
291.35 K, x1 = 0.407 | 969.156
291.35 K, x1 = 0.414 | 968.504
291.35 K, x1 = 0.486 | 943.014
291.35 K, x1 = 0.488 | 939.641
291.35 K, x1 = 0.573 | 900.922
291.36 K, x1 = 0.266 | 997.796
291.36 K, x1 = 0.3 | 984.888
291.36 K, x1 = 0.325 | 976.768
291.36 K, x1 = 0.338 | 976.695
291.36 K, x1 = 0.363 | 976.137
291.36 K, x1 = 0.546 | 910.024
291.36 K, x1 = 0.587 | 897.278
291.36 K, x1 = 0.615 | 890.441
291.45 K, x1 = 0.246 | 1006.19
291.45 K, x1 = 0.275 | 994.165
291.45 K, x1 = 0.338 | 972.479
291.45 K, x1 = 0.382 | 968.647
291.45 K, x1 = 0.407 | 965.925
291.45 K, x1 = 0.414 | 965.499
291.45 K, x1 = 0.486 | 938.691
291.45 K, x1 = 0.488 | 935.781
291.45 K, x1 = 0.546 | 907.652
291.45 K, x1 = 0.573 | 900.812
291.45 K, x1 = 0.587 | 897.17
291.45 K, x1 = 0.615 | 890.332
291.46 K, x1 = 0.266 | 997.671
291.46 K, x1 = 0.3 | 984.765
291.46 K, x1 = 0.325 | 975.497
291.46 K, x1 = 0.363 | 971.707
291.55 K, x1 = 0.246 | 1006.07
291.55 K, x1 = 0.275 | 994.042
291.55 K, x1 = 0.382 | 965.717
291.55 K, x1 = 0.407 | 961.145
291.55 K, x1 = 0.414 | 961.374
291.55 K, x1 = 0.486 | 933.844
291.55 K, x1 = 0.488 | 932.33
291.55 K, x1 = 0.573 | 900.7
291.56 K, x1 = 0.266 | 997.549
291.56 K, x1 = 0.3 | 984.639
291.56 K, x1 = 0.325 | 975.358
291.56 K, x1 = 0.338 | 970.561
291.56 K, x1 = 0.363 | 967.75
291.56 K, x1 = 0.546 | 907.531
291.56 K, x1 = 0.587 | 897.059
291.56 K, x1 = 0.615 | 890.227
291.65 K, x1 = 0.246 | 1005.95
291.65 K, x1 = 0.266 | 997.425
291.65 K, x1 = 0.275 | 993.918
291.65 K, x1 = 0.325 | 975.23
291.65 K, x1 = 0.338 | 970.427
291.65 K, x1 = 0.363 | 961.876
291.65 K, x1 = 0.382 | 955.241
291.65 K, x1 = 0.407 | 957.953
291.65 K, x1 = 0.414 | 956.971
291.65 K, x1 = 0.486 | 923.683
291.65 K, x1 = 0.488 | 922.941
291.65 K, x1 = 0.546 | 907.417
291.65 K, x1 = 0.573 | 900.591
291.65 K, x1 = 0.615 | 890.121
291.66 K, x1 = 0.3 | 984.514
291.66 K, x1 = 0.587 | 896.95
291.75 K, x1 = 0.246 | 1005.83
291.75 K, x1 = 0.266 | 997.302
291.75 K, x1 = 0.275 | 993.795
291.75 K, x1 = 0.3 | 984.391
291.75 K, x1 = 0.325 | 975.108
291.75 K, x1 = 0.338 | 970.303
291.75 K, x1 = 0.363 | 961.743
291.75 K, x1 = 0.382 | 955.25
291.75 K, x1 = 0.414 | 944.629
291.75 K, x1 = 0.486 | 923.534
291.75 K, x1 = 0.488 | 922.803
291.75 K, x1 = 0.546 | 907.305
291.75 K, x1 = 0.573 | 900.482
291.75 K, x1 = 0.615 | 890.018
291.76 K, x1 = 0.407 | 947.126
291.76 K, x1 = 0.587 | 896.844
291.85 K, x1 = 0.246 | 1005.7
291.85 K, x1 = 0.275 | 993.671
291.85 K, x1 = 0.3 | 984.268
291.85 K, x1 = 0.338 | 970.173
291.85 K, x1 = 0.382 | 955.119
291.85 K, x1 = 0.414 | 944.718
291.85 K, x1 = 0.486 | 923.411
291.85 K, x1 = 0.573 | 900.371
291.85 K, x1 = 0.615 | 889.909
291.86 K, x1 = 0.266 | 997.179
